Oligonucleotides are written 5' to 3', each unit as a sugar letter and its base; * is a phosphorothioate linkage, no mark a phosphodiester; rarer units and linkages stand in square brackets, end groups in braces. Plain capitals give the bases only. e = 2'-O-(2-methoxyethyl) (MOE); [5mC] = 5-methylcytosine; d = 2'-deoxy (DNA)
What was measured:
Type in all cases: cell-based
[1] = system: Human STAT3 mRNA; assay: Human STAT3 mRNA dose response in T-24 cells, real-time PCR with PPS 2033 (Table 19); settings: 16 hours, − decrease, + increase relative to untreated control
Method: The dose-response was repeated in T-24 cells and gene target quantities were measured using a different primer-probe set, called PPS 2033 herein. PPS 2033 comprises probes and primers to human STAT3 were designed to hybridize to a human STAT3 sequence, using published sequence information (incorporated herein as SEQ ID NO: XXX). For PPS 2033 the PCR primers were: forward primer: GAGGCCCGCCCAACA (SEQ ID NO: 397) reverse primer: […] (SEQ ID NO: 398) and the PCR probe was: FAM-CTGCCTAGATCGGC-TAMRA (SEQ ID NO: 399) where FAM is the fluorescent reporter dye and TAMRA is the quencher dye. Gene target quantities obtained by real time RT-PCR are normalized by quantifying total RNA using RiboGreen™ (Molecular Probes, Inc. Eugene, Oreg.). Control oligonucleotides used were ISIS 129695 (SEQ ID NO: 391), ISIS 129694 (SEQ ID NO: 392), ISIS 129690 (SEQ ID NO: 393), ISIS 129686 (SEQ ID NO: 394), ISIS 116847 (SEQ ID NO: 395) and ISIS 113529 (SEQ ID NO: 396).
(§1) T-24 cells were treated with 18.75, 37.5, 75, or 150 nM of oligonucleotide mixed with 3 ug/mL LIPOFECTIN per 100 nM oligonucleotide as described by other examples herein. Untreated cells served as controls. Following 16 hours of treatment, RNA was prepared from cells for subsequent real-time PCR analysis.
Human STAT3 mRNA expression levels were quantitated by real-time PCR using primer probe set PPS 2033 and gene target quantities were normalized using Ribogreen as described in other examples herein. A “−” or “+” designation indicates a decrease or increase of STAT 3 mRNA expression, respectively, relative to untreated control cells.

[2] = system: Human STAT3 mRNA; assay: Human STAT3 mRNA dose response in T-24 cells, real-time PCR with PPS 199 (Table 18); settings: 16 hours, − decrease, + increase relative to untreated control
Description: The transitional cell bladder carcinoma cell line T-24 was obtained from the American Type Culture Collection (ATCC) (Manassas, Va.). T-24 cells were routinely cultured in complete McCoy's 5A basal media (Gibco/Life Technologies, Gaithersburg, Md.) supplemented with 10% fetal calf serum (Gibco/Life Technologies, Gaithersburg, Md.), penicillin 100 units per mL, and streptomycin 100 micrograms per mL (Gibco/Life Technologies, Gaithersburg, Md.). Cells were routinely passaged by trypsinization and dilution when they reached 90% confluence. Cells were seeded into 96-well plates (Falcon-Primaria #3872) at a density of 7000 cells/well for use in RT-PCR analysis.
Control oligonucleotides used were ISIS 129695 ([…], SEQ ID NO: 391), ISIS 129694 ([…] SEQ ID NO: 392), ISIS 129690 ([…] SEQ ID NO: 393), ISIS 129686 ([…] SEQ ID NO: 394), ISIS 116847 ([…], SEQ ID NO: 395) and ISIS 113529 ([…] SEQ ID NO: 396). These are universal scrambled control oligonucleotides.
as §1
Human STAT3 mRNA expression levels were quantitated by real-time PCR using primer probe set PPS 199 and gene target quantities were normalized using Ribogreen as described in other examples herein. A “−” or “+” designation indicates a decrease or increase of STAT 3 mRNA expression, respectively, relative to untreated control cells.

[3] = system: Human STAT3 mRNA; assay: Inhibition of human STAT3 mRNA levels in A549 cells, 75 nM, real-time PCR (Table 13); settings: 75 nM oligonucleotide with LIPOFECTIN, real-time PCR PPS 199, percent inhibition relative to untreated control cells, average of 2 experiments
Outline: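 A549 cells at 65–75% confluency were transfected in duplicate with 75 nM oligonucleotide plus […] Lipofectin for 4–7 h at 37° C and harvested 16–24 h later. STAT3 mRNA was quantified by real-time RT-PCR with primer-probe set PPS 199 and normalized to RiboGreen total RNA. Inhibition is relative to untreated controls.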

Substance | Percent change of STAT3 expression using PPS 2033 ([1]; 18.75 nM oligonucleotide) | Percent change of STAT3 expression using PPS 2033 ([1]; 37.5 nM oligonucleotide) | Percent change of STAT3 expression using PPS 2033 ([1]; 75 nM oligonucleotide) | Percent change of STAT3 expression using PPS 2033 ([1]; 150 nM oligonucleotide) | Percent change of STAT3 expression using PPS 199 ([2]; 18.75 nM oligonucleotide) | Percent change of STAT3 expression using PPS 199 ([2]; 37.5 nM oligonucleotide) | Percent change of STAT3 expression using PPS 199 ([2]; 75 nM oligonucleotide) | Percent change of STAT3 expression using PPS 199 ([2]; 150 nM oligonucleotide) | % Inhib (inhibition of human STAT 3 mRNA levels) [3]
337284 (antisense e[5mC]*eT*e[5mC]*e[5mC]*eT*dT*dG*dA*d[5mC]*dT*d[5mC]*dT*dT*dG*dA*eG*eG*eG*eT*eT) [compound 337284] | −49% | −62% | −66% | −68% | −49% | −64% | −69% | −72% | 91%
129694 (antisense GTACAGTTATGCGCGGTAGA; all phosphorothioate, sugars by position and methylation of C not given here; 2'-MOE wings with deoxy gap) [compound 129694] | +19% | −1% | +7% | +2% | +4% | −3% | −4% | −10% | –
113529 (antisense CTCTTACTGTGCTGTGGACA; all phosphorothioate, sugars by position and methylation of C not given here; 2'-MOE wings and deoxy gap) [compound 113529] | +1% | +12% | −11% | −24% | +1% | −1% | −11% | −26% | –
129695 (antisense TTCTACCTCGCGCGATTTAC; all phosphorothioate, sugars by position and methylation of C not given here; 2'-MOE wings with deoxy gap) [compound 129695] | −4% | +2% | +8% | +3% | +5% | +2% | +8% | 0% | –
337344 (antisense eA*eT*e[5mC]*e[5mC]*eA*dT*dG*dA*dT*d[5mC]*dT*dT*dA*dT*dA*eG*e[5mC]*e[5mC]*e[5mC]*eA) [compound 337344] | −17% | −37% | −60% | −76% | −27% | −47% | −63% | −77% | 90%
337247 (antisense eT*eT*eT*eT*eG*d[5mC]*dA*dT*dG*dA*dT*dG*dT*dA*dA*e[5mC]*e[5mC]*eA*e[5mC]*eT) [compound 337247] | +17% | −21% | −53% | −69% | −23% | −43% | −62% | −75% | 87%
106747 (GCCCATGATGATTTCAGCAA; all C 5-methyl, all phosphorothioate, sugars by position not given here; further chemistry not fully specified) [compound 106747] | −32% | −48% | −62% | −76% | −37% | −48% | −71% | −84% | –
337270 (antisense eT*eT*eG*eG*e[5mC]*dT*dT*d[5mC]*dT*d[5mC]*dA*dA*dG*dA*dT*eA*e[5mC]*e[5mC]*eT*eG) [compound 337270] | −16% | −27% | −67% | −87% | −29% | −41% | −67% | −87% | 89%
116847 (antisense CTGCTAGCCTCTGGATTTGA; all phosphorothioate, sugars by position and methylation of C not given here; 2'-MOE wings and deoxy gap) [compound 116847] | +45% | +33% | +22% | −2% | +7% | +4% | +8% | +5% | –
337303 (antisense eA*eG*e[5mC]*eT*eG*dA*dT*dA*dA*dT*dT*d[5mC]*dA*dA*d[5mC]*eT*e[5mC]*eA*eG*eG) [compound 337303] | −47% | −59% | −69% | −71% | −44% | −61% | −69% | −72% | 85%
337384 (antisense eA*eT*eA*e[5mC]*eA*dG*dA*dA*dA*dG*dG*d[5mC]*dT*dA*dT*eG*e[5mC]*eT*eG*eA) [compound 337384] | −41% | −59% | −69% | −80% | −40% | −55% | −71% | −80% | 89%
337276 (antisense e[5mC]*eT*eG*eG*eA*dG*dA*dT*dT*d[5mC]*dT*d[5mC]*dT*dA*d[5mC]*e[5mC]*eA*e[5mC]*eT*eT) [compound 337276] | −34% | −58% | −75% | −81% | −40% | −61% | −76% | −81% | 91%

— patent publication US20050074879A1, “Antisense oligonucleotide modulation of STAT3 expression” (priority 2000, published 2005)
